Reference: PubChem BioAssay AID1963872 (Molecular Pharmacology Branch, DTP, NCI, 2024)

Tested on: KRAS patient-derived spheroids with HUVEC/MSC, viability
Assay: Anticancer human tumor 519858-162-T-J1-PDC patient-derived colon adenocarcinoma cell line growth inhibition [KRAS2]
Settings: for IC50: curve of first compound; for viability, T/C: stronger effect = lower value
Excerpt: Multicellular complex tumor spheroid response to RAS pathway inhibitors in combination with a targeted agents in patient-derived cell lines with oncogenic KRAS variants from multiple cancer types
A high-throughput screen of multi-cell type tumor spheroids was designed to identify active combinations of targeted small molecules and KRAS pathway inhibitors. Complex spheroids include a stromal component modeled by human endothelial cells (HUVEC) and fibroblasts modeled by human mesenchymal stem cells (MSCs). The concentration ranges selected for each drug and investigational agent were based upon clinically achievable concentrations if the clinical Cmax of the agent was known.
Compounds. The drugs and investigational agents: BI-3406 (NSC825286), BAY-293 (NSC824723), batoprotafib (TNO155; NSC825523), sotorasib (AMG 510; NSC818433), MRTX1257 (NSC819558), elimusertib (BAY 1895344; NSC800525), molibresib (GSK525762; NSC774829), temuterkib (LY3214996; NSC803410), venetoclax (NSC766270), alisertib (NSC759677), olaparib (NSC753686), talazoparib (NSC767125), erdafitinib (NSC781556), ipatasertib (NSC767898), cabozantinib (NSC761068), nintedanib (NSC756659), abemaciclib (NSC768073), docetaxel (NSC628503), trametinib (NSC758246), and sapanisertib (NSC764658) were obtained from the National Cancer Institute (NCI) Developmental Therapeutics Program Chemical Repository. The FDA-approved anticancer drug set is available from the Developmental Therapeutics Program. […] The stock solutions were prepared in dimethyl sulfoxide (DMSO, Sigma-Aldrich, St. Louis, MO, cat. D2650) at 800-fold the tested concentration and stored at -70 degrees C prior to their use. All drugs and investigational agents were tested over a range starting from a high concentration at or near the clinical Cmax and decreasing in half-log increments. If the clinical Cmax for an agent had not been determined, the highest concentration tested was 10 microM.
Cell Culture. All cells were maintained in an incubator at 37 degrees C and 5% CO2 with 95% humidity. The PDC lines were cultured according to standard operating procedures established by the NCI PDMR (https://pdmr.cancer.gov/sops/default.htm). Briefly, all PDCs were thawed and cultured in Matrigel-coated flasks prepared with a working solution of 1X Ham's F-12 nutrient mix, without supplementation (Invitrogen, Waltham, MA, cat. 11765054), 100 U/mL penicillin-streptomycin (Invitrogen, cat. 15140122), and 2.5% Matrigel (Corning Inc., Corning, NY, cat. 354248) for the first three passages. All PDCs were cultured in complete DMEM/F-12 media containing advanced DMEM/F-12 (Invitrogen, cat. 12634028), 4.9% defined fetal bovine serum, heat inactivated (HyClone Laboratories Inc., Logan, UT, cat. SH30070.03HI), 389 ng/mL hydrocortisone (Sigma-Aldrich, cat. H4001), 9.7 ng/mL human EGF recombinant protein (Invitrogen, cat. PHG0313), 23.4 microg/mL adenine (Sigma-Aldrich, cat. A2786), 97.3 U/mL penicillin-streptomycin (Invitrogen, cat. 15140122), 1.9 mM L-glutamine (Invitrogen, cat. 25030081), and 9.7 microM Y-27632 dihydrochloride (Tocris Bioscience, Bristol, United Kingdom, cat. 1254). The PDCs were cultured in complete DMEM/F12 media without 9.7 microM Y-27632 dihydrochloride for at least two passages prior to the screen. The established cell line HOP-62 was cultured in RPMI 1640 medium, HEPES (Invitrogen, cat. 22400105) with 10% defined fetal bovine serum (HyClone Laboratories Inc., cat. SH30070.03) and 2 mM L-glutamine (Invitrogen, cat. 25030081). The pooled donor HUVEC were cultured in endothelial cell growth medium 2 (PromoCell, Heidelberg, Germany, cat. C-22011) and the hMSC were cultured in mesenchymal stem cell growth medium 2 (PromoCell, cat. C-28009). For all experiments, HUVEC and hMSC were used at passages </=5, while the malignant cell lines were used at passages </=15. […]

[1] = second compound 0.1 µM, first compound 0.0316 µM
[2] = second compound 0.1 µM, first compound 0.1 µM
[3] = second compound 0.1 µM, first compound 0.316 µM
[4] = second compound 0.1 µM, first compound 1 µM
[5] = second compound 0.1 µM, first compound 3.16 µM
[6] = second compound 0.1 µM, first compound 10 µM
[7] = second compound 0.316 µM, first compound 0.0316 µM
[8] = second compound 0.316 µM, first compound 0.1 µM
[9] = second compound 0.316 µM, first compound 0.316 µM
[10] = second compound 0.316 µM, first compound 1 µM
[11] = second compound 0.316 µM, first compound 3.16 µM
[12] = second compound 0.316 µM, first compound 10 µM
[13] = second compound 1 µM, first compound 0.0316 µM
[14] = second compound 1 µM, first compound 0.1 µM
[15] = second compound 1 µM, first compound 0.316 µM
[16] = second compound 1 µM, first compound 1 µM
[17] = second compound 1 µM, first compound 3.16 µM
[18] = second compound 1 µM, first compound 10 µM
[19] = second compound 3.16 µM, first compound 0.0316 µM
[20] = second compound 3.16 µM, first compound 0.1 µM
[21] = second compound 3.16 µM, first compound 0.316 µM
[22] = second compound 3.16 µM, first compound 1 µM
[23] = second compound 3.16 µM, first compound 3.16 µM
[24] = second compound 3.16 µM, first compound 10 µM
[25] = second compound 10 µM, first compound 0.0316 µM
[26] = second compound 10 µM, first compound 0.1 µM
[27] = second compound 10 µM, first compound 0.316 µM
[28] = second compound 10 µM, first compound 1 µM
[29] = second compound 10 µM, first compound 3.16 µM
[30] = second compound 10 µM, first compound 10 µM
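Note: compound exposure lasted seven days before readout.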
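Throughout, for viability, T/C: 100% = DMSO vehicle control viability.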

SMILES	IC50 (second compound 0.1 µM)	IC50 (second compound 0.316 µM)	IC50 (second compound 1 µM)	IC50 (second compound 3.16 µM)	viability, T/C [1]	viability, T/C [2]	viability, T/C [3]	viability, T/C [4]	viability, T/C [5]	viability, T/C [6]	viability, T/C [7]	viability, T/C [8]	viability, T/C [9]	viability, T/C [10]	viability, T/C [11]	viability, T/C [12]	viability, T/C [13]	viability, T/C [14]	viability, T/C [15]	viability, T/C [16]	also measured
Cn1nccc1Nc1nccc(-c2cc3c(s2)C(C)(C)N(CCN2CCOCC2)C3=O)n1 + CNCc1ccccc1-c1csc(C(C)Nc2nc(C)nc3cc(OC)c(OC)cc23)c1	3240 nM	4470 nM	1090 nM	< 31.6 nM	102%	90.2%	74.2%	63%	55.7%	33.5%	90.3%	77.5%	68.2%	78.5%	49.2%	39.6%	79.5%	71%	74.3%	50.6%	IC50 (second compound 10 µM): < 31.6 nM; viability, T/C [17]: 31.9%; viability, T/C [18]: 25.9%; viability, T/C [19]: 38.9%; viability, T/C [20]: 48%; viability, T/C [21]: 29.8%; viability, T/C [22]: 36.6%; viability, T/C [23]: 20.8%; viability, T/C [24]: 21.2%; viability, T/C [25]: 2.36%; viability, T/C [26]: 0.52%; viability, T/C [27]: 0.35%; viability, T/C [28]: 0.39%; viability, T/C [29]: 0.71%; viability, T/C [30]: 0.65%
CCNC(=O)CC1N=C(c2ccc(Cl)cc2)c2cc(OC)ccc2-n2c(C)nnc21 (stereo not given) + C=CC(=O)N1CCN(c2nc(OCC3CCCN3C)nc3c2CCN(c2cccc4cccc(C)c24)C3)CC1CC#N	1730 nM	1330 nM	1440 nM	200 nM	85.5%	93.8%	79.7%	59.2%	40.4%	27.2%	101%	88.3%	66.4%	54.1%	40.4%	22.9%	89.3%	74.6%	70.4%	58.2%	IC50 (second compound 0.0316 µM): 1530 nM; viability, T/C (second compound 0.0316 µM, first compound 0.0316 µM): 90.5%; viability, T/C (second compound 0.0316 µM, first compound 0.1 µM): 76.3%; viability, T/C (second compound 0.0316 µM, first compound 0.316 µM): 92.1%; viability, T/C (second compound 0.0316 µM, first compound 1 µM): 57.6%; viability, T/C (second compound 0.0316 µM, first compound 3.16 µM): 42.6%; viability, T/C (second compound 0.0316 µM, first compound 10 µM): 31.6%; viability, T/C [17]: 35.8%; viability, T/C [18]: 20.6%; viability, T/C [19]: 69.9%; viability, T/C [20]: 55.2%; viability, T/C [21]: 46.9%; viability, T/C [22]: 33.2%; viability, T/C [23]: 29.6%; viability, T/C [24]: 18.4%
COc1cc2nccc(Oc3ccc(NC(=O)C4(C(=O)Nc5ccc(F)cc5)CC4)cc3)c2cc1OC + CC1OCC2(CCN(c3cnc(Sc4ccnc(N)c4Cl)c(N)n3)CC2)C1N	> 10000 nM	> 10000 nM	> 10000 nM	> 10000 nM	68.4%	72.7%	83.2%	84.7%	94%	130%	64.3%	62.7%	78.9%	92.6%	150%	96.4%	64.4%	74.4%	90%	93.1%	IC50 (second compound 10 µM): > 10000 nM; viability, T/C [17]: 143%; viability, T/C [18]: 85.8%; viability, T/C [19]: 57.9%; viability, T/C [20]: 68.1%; viability, T/C [21]: 88.5%; viability, T/C [22]: 71.9%; viability, T/C [23]: 80.7%; viability, T/C [24]: 99.4%; viability, T/C [25]: 78.2%; viability, T/C [26]: 92.5%; viability, T/C [27]: 110%; viability, T/C [28]: 103%; viability, T/C [29]: 107%; viability, T/C [30]: 70.6%
